Experimental data from patent publication US10214508B2, “Nitrogen-containing heterocyclic compound” (Takeda Pharmaceutical Company Limited, priority 2014, dated 2019).

Molecular target: T1, human M1 receptor (hCHRM1) (Homo sapiens, UniProt P11229)
T1 construct: expressed in transfected cells
T1 sequence (P11229 1-460): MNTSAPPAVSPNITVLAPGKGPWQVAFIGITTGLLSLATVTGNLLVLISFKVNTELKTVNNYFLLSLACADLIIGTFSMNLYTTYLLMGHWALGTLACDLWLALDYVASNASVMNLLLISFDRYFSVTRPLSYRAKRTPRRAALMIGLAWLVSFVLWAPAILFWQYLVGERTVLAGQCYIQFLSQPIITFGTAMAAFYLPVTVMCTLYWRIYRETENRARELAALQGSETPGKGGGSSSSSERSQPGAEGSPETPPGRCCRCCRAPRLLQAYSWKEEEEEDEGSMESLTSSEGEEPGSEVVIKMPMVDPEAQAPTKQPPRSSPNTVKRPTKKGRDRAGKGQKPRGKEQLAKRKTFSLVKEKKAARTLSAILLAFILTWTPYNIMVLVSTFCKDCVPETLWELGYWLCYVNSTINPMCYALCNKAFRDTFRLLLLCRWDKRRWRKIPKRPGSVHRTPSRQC
Experiment: Measurement of M1 receptor positive allosteric modulator (M1PAM) activity, calcium fluorescence (FLIPRtetra)
Assay type: cell-based
Settings: 10 μM test compound with acetylcholine at EC20 (final 0.6-0.8 nM); 100% = acetylcholine 1 μM, 0% = DMSO; CHO-K1 cells expressing hCHRM1
Description: Measurement of M1 Receptor Positive Allosteric Modulator (M1PAM) Activity
The activity of a test compound in the presence of acetylcholine at EC20 concentration (final concentration 0.6-0.8 nM), which affords an action corresponding to about 20% of the maximum activity, was measured as PAM activity. The method is as follows. CHO-K1 cells stably expressing a human M1 receptor (hCHRM1) were plated on a 384-well black clear bottom plate (BD Falcon) at 5,000 cells/well, and cultured in an incubator at 37° C., 5% CO2 for 1 day. The medium in the cell plate was removed, and assay buffer A containing calcium indicator (Recording medium (DOJINDO LABORATORIES), 0.1% BSA (Wako Pure Chemical Industries, Ltd.), 2.5 μg/mL Fluo-4 AM (DOJINDO LABORATORIES), 0.08% Pluronic F127 (DOJINDO LABORATORIES), 1.25 mM probenecid (DOJINDO LABORATORIES)) was added at 30 μL/well. The cells were left standing in the incubator at 37° C., 5% CO2 for 30 min, and further left standing at room temperature for 30 min. A test compound prepared by diluting with assay buffer B (HBSS (Invitrogen), 20 mM HEPES (Invitrogen), 0.1% BSA) containing 2.4-3.2 nM acetylcholine was added at 10 μL/well, and the fluorescence was measured by FLIPRtetra (Molecular Devices) for 1 min every for 1 second. With the definition that the amount of change in the fluorescence on addition of acetylcholine (final concentration 1 μM) is 100% and that on addition of DMSO instead of a test compound is 0%, the activity (%) of the test compound was calculated, and the inflection point in the concentration-dependent curve of the test compound was calculated as IP values.

Row | SMILES | activity (%) at 10 μM [%]
1 | Cc1nc(C(=O)N[C@H]2CCCC[C@@H]2O)cc(Cc2ccc(-c3ccn(C)n3)cc2)c1C [Example 81, N-((1S,2S)-2-hydroxycyclohexyl)-5,6-dimethyl-4-(4-(1-methyl-1H-pyrazol-3-yl)benzyl)pyridine-2-carboxamide] | 97
2 | Cc1cnc(C(=O)N[C@H]2CCCC[C@@H]2O)cc1Cc1ccc(-n2cccn2)cc1 (relative stereo) [Example 4, N-(trans-2-hydroxycyclohexyl)-5-methyl-4-(4-(1H-pyrazol-1-yl)benzyl)pyridine-2-carboxamide] | 98
3 | COc1cnc(C(=O)N[C@H]2COCC[C@@H]2O)cc1Cc1ccc(-n2cccn2)cc1 [Example 56, 1,5-anhydro-2,4-dideoxy-2-(((5-methoxy-4-(4-(1H-pyrazol-1-yl)benzyl)pyridin-2-yl)carbonyl)amino)-L-threo-pentitol] | 103
4 | O=C(N[C@H]1CCC[C@@H]1O)c1cc(Cc2ccc(-n3cccn3)cc2)c(Cl)cn1 [Example 7, 5-chloro-N-((1S,2S)-2-hydroxycyclopentyl)-4-(4-(1H-pyrazol-1-yl)benzyl)pyridine-2-carboxamide] | 104
5 | Cc1cnc(C(=O)N[C@H]2CCC[C@@H]2O)cc1Cc1ccc(-n2cccn2)nc1 [Example 34, N-((1S,2S)-2-hydroxycyclopentyl)-5-methyl-4-((6-(1H-pyrazol-1-yl)pyridin-3-yl)methyl)pyridine-2-carboxamide] | 96
6 | Cn1ccc(-c2ccc(Cc3cc(C(=O)N[C@H]4CCCC[C@@H]4O)ncc3C(F)F)cc2)n1 [Example 41, 5-(difluoromethyl)-N-((1S,2S)-2-hydroxycyclohexyl)-4-(4-(1-methyl-1H-pyrazol-3-yl)benzyl)pyridine-2-carboxamide] | 95
7 | COc1cnc(C(=O)N[C@H]2CCCC[C@@H]2O)cc1Cc1ccc(Br)cc1 [Example 62, 4-(4-bromobenzyl)-N-((1S,2S)-2-hydroxycyclohexyl)-5-methoxypyridine-2-carboxamide] | 96
8 | COc1nc(C(=O)N[C@H]2COCC[C@@H]2O)cc(Cc2ccc(-c3ccn(C)n3)cc2)c1C [Example 89, 1,5-anhydro-2,4-dideoxy-2-(((6-methoxy-5-methyl-4-(4-(1-methyl-1H-pyrazol-3-yl)benzyl)pyridin-2-yl)carbonyl)amino)-L-threo-pentitol] | 101
9 | COc1cnc(C(=O)N[C@H]2CCC[C@@H]2O)cc1Cc1ccc(-n2cccn2)cc1 [Example 60, N-((1S,2S)-2-hydroxycyclopentyl)-5-methoxy-4-(4-(1H-pyrazol-1-yl)benzyl)pyridine-2-carboxamide] | 87
10 | Cc1cnc(C(=O)NC2CCC2)cc1Cc1ccc(-c2ccn(C)n2)cc1 [Example 29, N-cyclobutyl-5-methyl-4-(4-(1-methyl-1H-pyrazol-3-yl)benzyl)pyridine-2-carboxamide] | 93
11 | Cc1cnc(C(=O)N[C@H]2COCC[C@@H]2O)cc1Cc1ccc(-n2cccn2)cc1F [Example 17, 1,5-anhydro-2,4-dideoxy-2-(((4-(2-fluoro-4-(1H-pyrazol-1-yl)benzyl)-5-methylpyridin-2-yl)carbonyl)amino)-L-threo-pentitol] | 98
12 | Cc1cnc(C(=O)N[C@H]2CCC[C@@H]2O)cc1Cc1ccc(-n2cccn2)cc1 [Example 5, N-((1S,2S)-2-hydroxycyclopentyl)-5-methyl-4-(4-(1H-pyrazol-1-yl)benzyl)pyridine-2-carboxamide] | 91
13 | Cc1cnc(C(=O)N[C@H]2CCCC[C@@H]2O)cc1Cc1ccc(-c2cn(C)nc2C)cc1 [Example 15, 4-(4-(1,3-dimethyl-1H-pyrazol-4-yl)benzyl)-N-((1S,2S)-2-hydroxycyclohexyl)-5-methylpyridine-2-carboxamide] | 107
14 | Cc1cnc(C(=O)NC2CC(F)(F)CCC2O)cc1Cc1ccc(-c2ccn(C)n2)cc1 (stereo not shown) [Example 25, N-(5,5-difluoro-2-hydroxycyclohexyl)-5-methyl-4-(4-(1-methyl-1H-pyrazol-3-yl)benzyl)pyridine-2-carboxamide] | 85
15 | Cc1nc(C(=O)N[C@H]2CCCC[C@@H]2O)cc(Cc2ccc(-n3cccn3)cc2)c1Cl [Example 98, 5-chloro-N-((1S,2S)-2-hydroxycyclohexyl)-6-methyl-4-(4-(1H-pyrazol-1-yl)benzyl)pyridine-2-carboxamide] | 94
16 | COc1ccc(Cc2cc(C(=O)N[C@H]3CCCC[C@@H]3O)nc(C)c2Cl)cn1 [Example 105, 5-chloro-N-((1S,2S)-2-hydroxycyclohexyl)-4-((6-methoxypyridin-3-yl)methyl)-6-methylpyridine-2-carboxamide] | 100
17 | Cc1cnc(C(=O)NC2(CO)CC2)cc1Cc1ccc(-c2ccn(C)n2)cc1 [Example 23, N-(1-(hydroxymethyl)cyclopropyl)-5-methyl-4-(4-(1-methyl-1H-pyrazol-3-yl)benzyl)pyridine-2-carboxamide] | 84
18 | COc1ccc(Cc2cc(C(=O)N[C@H]3CCCC[C@@H]3O)ncc2C)cc1 [Example 19, N-((1S,2S)-2-hydroxycyclohexyl)-4-(4-methoxybenzyl)-5-methylpyridine-2-carboxamide] | 104
19 | O=C(N[C@H]1CCCC[C@@H]1O)c1cc(Cc2ccc(-n3cccn3)cc2)c(C(F)F)cn1 [Example 38, 5-(difluoromethyl)-N-((1S,2S)-2-hydroxycyclohexyl)-4-(4-(1H-pyrazol-1-yl)benzyl)pyridine-2-carboxamide] | 101
20 | Cc1ccc(Cc2cc(C(=O)N[C@H]3CCCC[C@@H]3O)nc(C)c2C)cn1 [Example 84, N-((1S,2S)-2-hydroxycyclohexyl)-5,6-dimethyl-4-((6-methylpyridin-3-yl)methyl)pyridine-2-carboxamide] | 93
21 | C=Cc1cnc(C(=O)N[C@H]2CCCC[C@@H]2O)cc1Cc1ccc(-n2cccn2)cc1 [Example 42, N-((1S,2S)-2-hydroxycyclohexyl)-4-(4-(1H-pyrazol-1-yl)benzyl)-5-vinylpyridine-2-carboxamide] | 106
22 | Cn1ccc(-c2ccc(Cc3cc(C(=O)N[C@H]4CCCC[C@@H]4O)ncc3Cl)cc2)n1 [Example 51, 5-chloro-N-((1S,2S)-2-hydroxycyclohexyl)-4-(4-(1-methyl-1H-pyrazol-3-yl)benzyl)pyridine-2-carboxamide] | 95
23 | Cc1nc(C(=O)N[C@H]2CCCC[C@@H]2O)cc(Cc2ccc(-c3ccn(C)n3)cc2)c1Cl [Example 65, 5-chloro-N-((1S,2S)-2-hydroxycyclohexyl)-6-methyl-4-(4-(1-methyl-1H-pyrazol-3-yl)benzyl)pyridine-2-carboxamide] | 106
24 | O=C(N[C@H]1CCCC[C@@H]1O)c1cc(Cc2ccc(-n3cccn3)cc2)ccn1 [Example 45, N-((1S,2S)-2-hydroxycyclohexyl)-4-(4-(1H-pyrazol-1-yl)benzyl)pyridine-2-carboxamide] | 102
25 | Cc1cnc(C(=O)N[C@H]2COCC[C@@H]2O)cc1Cc1ccc(-n2cccn2)cc1F [Example 36, 1,5-anhydro-2,4-dideoxy-2-(((4-(2-fluoro-4-(1H-pyrazol-1-yl)benzyl)-5-methylpyridin-2-yl)carbonyl)amino)-L-threo-pentitol] | 95
